# What was measured:
# PrP^Sc [1] = test system: PrP^Sc
# PrP^Sc [2] = molecular target: PrP^Sc (Mus musculus, UniProt P04925)
# mouse PrP^Sc = mouse PrP^Sc (Mus musculus, UniProt P04925)
# bovine PrP^Sc = bovine PrP^Sc (Bos taurus, UniProt P10279)
# PrP^C = PrP^C (Mesocricetus auratus, UniProt P04273)
# PrP^C, sequence (P04273 23-231 limits assumed): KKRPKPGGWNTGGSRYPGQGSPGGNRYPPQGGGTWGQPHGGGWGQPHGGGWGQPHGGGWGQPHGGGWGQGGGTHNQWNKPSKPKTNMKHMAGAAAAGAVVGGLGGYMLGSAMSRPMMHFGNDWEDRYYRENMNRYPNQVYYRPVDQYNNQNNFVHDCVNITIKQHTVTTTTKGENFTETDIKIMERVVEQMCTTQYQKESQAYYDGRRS
# PrP^Sc (Mus musculus, UniProt P04925), sequence (P04925 23-230 limits assumed): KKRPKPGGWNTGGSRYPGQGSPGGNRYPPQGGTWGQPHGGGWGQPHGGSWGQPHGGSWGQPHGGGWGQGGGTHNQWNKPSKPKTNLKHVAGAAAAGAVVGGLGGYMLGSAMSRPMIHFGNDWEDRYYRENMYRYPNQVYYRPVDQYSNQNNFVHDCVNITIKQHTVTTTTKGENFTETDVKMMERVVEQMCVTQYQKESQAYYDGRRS
# mouse PrP^Sc, sequence (P04925 23-230 limits assumed): as above
# bovine PrP^Sc, sequence (P10279 25-241 limits assumed): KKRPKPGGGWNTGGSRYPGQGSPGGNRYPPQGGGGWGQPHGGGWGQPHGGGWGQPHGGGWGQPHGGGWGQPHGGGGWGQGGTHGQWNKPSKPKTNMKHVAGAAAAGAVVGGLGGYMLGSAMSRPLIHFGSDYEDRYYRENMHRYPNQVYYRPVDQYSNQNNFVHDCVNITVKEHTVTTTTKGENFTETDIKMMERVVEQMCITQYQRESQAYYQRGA
Sequence,PrP^Sc selective binding / capture (PrP^Sc [1]),precipitation of PrP^Sc from scrapie mouse brain lysate (PrP^Sc [2]),competition with YYRRYYRYY beads for capture of mouse PrP^Sc (mouse PrP^Sc),further results
YRAARYRAY,shown to selectively bind PrP^Sc,,,
AYRRYARYA,,not with YAR or AYR repeats,,
DRYYWYFDV,negative for PrP^Sc selective capture,,,
YSAASYASY,,precipitation of PrP^Sc was observed,compete,
YYRRYYRYY,,precipitation of PrP^Sc was observed,,capture of PrP^Sc from BSE-positive bovine brain lysate (bovine PrP^Sc): captures PrP^Sc; precipitation of normal isoform PrP^C from normal hamster brain lysate (PrP^C): not the normal isoform
DEAYYKGWFAY,negative for PrP^Sc selective capture,,,
YYAAYYAYY,,precipitation of PrP^Sc was observed,compete,
NHSTHNTGH,negative for PrP^Sc selective capture,,,
YARRAYRAY,,not with YAR or AYR repeats,failed to compete,capture of PrP^Sc from BSE-positive bovine brain lysate (bovine PrP^Sc): failed to capture PrP^Sc
YARYARYAR,shown to selectively bind PrP^Sc,,,

# Source: patent US7435540B2 (IDEXX Corporation, priority 2002, dated 2008)
